For one series, the system named is KB. The series can be described thus: Cytotoxicity against human KB cells. Format: functional. The following applies: read-out: ED50 (the source's name).
The next series deals with L5178Y. In words: Cytotoxicity against mouse L5178Y cells. Format: functional. The following applies: read-out: ED50 (the source's name).
Series [1] has as its system Mus musculus. The series can be described thus: Toxicity in ddY mouse xenografted with mouse solid Ehrlich carcinoma cells assessed as mortality at 20 mg/kg, ip qd for 3 to 8 days measured after 10 days. Format: organism-based. The arrangement: dose 20 mg/kg, route intraperitoneal. The note with it: in vivo, 240 h.
Series [2] has as its system Mus musculus. In words: Toxicity in ddY mouse xenografted with mouse solid Ehrlich carcinoma cells assessed as mortality at 7 mg/kg, ip qd for 3 to 8 days measured after 10 days. The format is organism-based. The arrangement: dose 7 mg/kg, route intraperitoneal. The note with it: in vivo, 240 h.
Series [3] can be described thus: Antitumor activity against mouse solid EAC cells xenografted in ddY mouse assessed as tumor weight at 20 mg/kg, ip qd for 3 to 8 days measured after 10 days. The format is functional, Ehrlich. The note with it: route intraperitoneal.
Series [4] can be described thus: Antitumor activity against mouse solid EAC cells xenografted in ddY mouse assessed as tumor weight at 7 mg/kg, ip qd for 3 to 8 days measured after 10 days. The format is functional, Ehrlich. The note with it: route intraperitoneal.
Series [5] is described as follows: Antitumor activity against mouse solid EAC cells xenografted in ddY mouse at 20 mg/kg, ip qd for 3 to 8 days measured after 10 days relative to control. The format is functional, Ehrlich. The note with it: route intraperitoneal.
A short description of series [6]: Antitumor activity against mouse solid EAC cells xenografted in ddY mouse at 7 mg/kg, ip qd for 3 to 8 days measured after 10 days relative to control. The format is functional, Ehrlich. The note with it: route intraperitoneal.
Series [7] is described as follows: Antitumor activity against mouse EAC cells xenografted in ddY mouse assessed as median survival time at 20 mg/kg, ip qd for 2 to 8 days. The format is functional, Ehrlich. The following applies: route intraperitoneal.
A short description of series [8]: Antitumor activity against mouse EAC cells xenografted in ddY mouse assessed as median survival time at 7 mg/kg, ip qd for 2 to 8 days. The format is functional, Ehrlich. The note with it: route intraperitoneal.

≈ marks a conversion by molar mass, not a printed value.

In general, T/C refers to the result in the treated group divided by that in the control group, in per cent.

As to `C=C(C)C(O)Cc1c(O)c(Cc2c(O)c(C(C)=O)c(O)c(C)c2OC)c(O)c(C(C)=O)c1O` (racemic), the EC50 in the series with KB was found to be 1.22 µg/mL (≈ 2.65 µM); in the series with L5178Y, 2.45 µg/mL (≈ 5.32 µM).
Turning to `COc1c(C)c(O)c(C(C)=O)c(O)c1Cc1c(O)c2c(c(C(C)=O)c1O)OC(C)(C)C(O)C2` (racemic) [MALLOTOCHROMANOL], the EC50 with KB and in the series on L5178Y was > 100 µg/mL each time.
With `C=C(C)C(O)Cc1c(O)c(Cc2c(O)c(C(C)=O)c(O)c(C)c2OC)c(O)c(C(=O)CCC)c1O` (racemic) [MALLOTOLERIN], the EC50 with KB turned out to be 0.95 µg/mL (≈ 1.94 µM); with L5178Y it was 0.82 µg/mL (≈ 1.68 µM).
The like results for `COc1c(C)c(O)c(C(C)=O)c(O)c1Cc1c(O)c2c(c(C(C)=O)c1O)OC(C)(C)C=C2` [MALLOTOCHROMENE] were, in that order, 2.1 µg/mL (≈ 4.75 µM) and 1.25 µg/mL (≈ 2.83 µM).
Take `COc1c(C)c(O)c(C(C)=O)c(O)c1Cc1c(O)c(CC=C(C)C)c(O)c(C(C)=O)c1O` [MALLOTOJAPONIN]: the EC50 was found to be 0.58 µg/mL (≈ 1.3 µM) with KB and 0.74 µg/mL (≈ 1.66 µM) in the series on L5178Y. Besides, the Activity result in the series with Mus musculus [1] is “Non-toxic”; in the series with Mus musculus [2] it was “Non-toxic”; in series [3] it was 0.59 g; in series [4], 0.93 g. Further, the T/C in [5] was found to be 49.5%; in series [6], 78.1%. Further, the values for the MST in [7] and in series [8] were 14 days and 20 days, respectively.
